This passage reports remaining activity results from paper PMC7827406, “Structure–Activity Relationship (SAR) Study of Spautin-1 to Entail the Discovery of Novel NEK4 Inhibitors” (International Journal of Molecular Sciences, 2021).

The structures appear in SMILES notation. Read-outs that look alike come from different tables or passages of the source.

Holding throughout (test): biochemical
Set-up in all cases: Eurofins KinaseProfiler full panel at Km ATP, residual kinase activity (%) relative to DMSO

One experiment addresses T1, TAO1(h) (Homo sapiens, UniProt Q7L7X3).
T1 construct: gene TAOK1
T1 sequence (Q7L7X3 1-1001): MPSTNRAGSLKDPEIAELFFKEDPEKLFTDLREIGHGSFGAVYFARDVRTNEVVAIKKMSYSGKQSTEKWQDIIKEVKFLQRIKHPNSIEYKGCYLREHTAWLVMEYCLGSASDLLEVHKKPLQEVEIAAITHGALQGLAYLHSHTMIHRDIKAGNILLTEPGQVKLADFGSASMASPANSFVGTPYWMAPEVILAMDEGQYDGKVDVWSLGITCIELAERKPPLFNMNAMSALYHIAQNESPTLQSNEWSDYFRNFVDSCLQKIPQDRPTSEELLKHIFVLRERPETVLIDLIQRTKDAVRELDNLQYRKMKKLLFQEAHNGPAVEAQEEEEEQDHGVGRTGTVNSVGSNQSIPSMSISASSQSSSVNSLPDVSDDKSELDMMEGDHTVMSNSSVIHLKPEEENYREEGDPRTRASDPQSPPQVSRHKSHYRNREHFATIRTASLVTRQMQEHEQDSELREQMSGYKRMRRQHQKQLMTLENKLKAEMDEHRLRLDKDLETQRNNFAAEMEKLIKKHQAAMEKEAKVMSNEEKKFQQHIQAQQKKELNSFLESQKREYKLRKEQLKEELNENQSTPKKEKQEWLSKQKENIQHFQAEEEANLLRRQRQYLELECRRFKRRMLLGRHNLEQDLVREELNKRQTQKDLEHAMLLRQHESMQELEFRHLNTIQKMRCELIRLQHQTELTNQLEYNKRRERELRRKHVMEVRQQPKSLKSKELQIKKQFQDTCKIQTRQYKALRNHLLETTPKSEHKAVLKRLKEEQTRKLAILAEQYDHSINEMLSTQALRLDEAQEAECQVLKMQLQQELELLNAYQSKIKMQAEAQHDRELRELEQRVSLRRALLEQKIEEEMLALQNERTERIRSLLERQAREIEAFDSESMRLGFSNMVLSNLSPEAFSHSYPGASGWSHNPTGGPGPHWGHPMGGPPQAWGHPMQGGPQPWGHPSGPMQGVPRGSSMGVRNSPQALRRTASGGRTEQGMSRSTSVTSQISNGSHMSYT
Put shortly:
(§1)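 Two 10 µM single-concentration screens were run: a competition-binding screen, in which DNA-tagged kinase bound to immobilized ligands was quantified by qPCR, and a radiometric activity panel at Km ATP. Each is expressed as residual kinase activity (%).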

The next experiment addresses STK39(h) (Homo sapiens, UniProt Q9UEW8). Summed up:
as §1

The target in a further experiment is T2, PKCα(h) (Homo sapiens, UniProt P17252).
T2 construct: gene PRKCA
Put shortly:
as §1

For a further experiment, the target named is T3, MKK3(h) (Homo sapiens, UniProt P46734).
T3 construct: gene MAP2K3
T3 sequence (P46734 1-347): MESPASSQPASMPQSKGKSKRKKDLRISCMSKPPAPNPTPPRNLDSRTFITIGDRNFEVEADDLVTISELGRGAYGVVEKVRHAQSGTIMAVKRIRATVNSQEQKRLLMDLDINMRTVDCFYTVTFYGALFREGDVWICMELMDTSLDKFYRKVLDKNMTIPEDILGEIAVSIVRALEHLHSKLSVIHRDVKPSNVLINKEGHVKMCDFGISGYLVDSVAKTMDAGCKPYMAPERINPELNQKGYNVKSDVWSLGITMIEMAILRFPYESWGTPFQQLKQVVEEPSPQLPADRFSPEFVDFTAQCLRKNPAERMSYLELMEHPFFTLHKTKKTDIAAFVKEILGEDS
Put shortly:
as §1

The next experiment concerns the target T4, p70S6K(h) (Homo sapiens, UniProt P23443).
T4 construct: gene RPS6KB1
Summed up:
as §1

Setting [1] is: read-out: Residual activity (%) Spautin-1 5aa.
The mark [2] stands for this setting: read-out: Residual activity (%) 5as.
Setting [3] is: read-out: Residual activity (%) 5at.
The mark [4] stands for this setting: read-out: Residual activity (%) 5ay.

T4 sequence (P23443 whole entry): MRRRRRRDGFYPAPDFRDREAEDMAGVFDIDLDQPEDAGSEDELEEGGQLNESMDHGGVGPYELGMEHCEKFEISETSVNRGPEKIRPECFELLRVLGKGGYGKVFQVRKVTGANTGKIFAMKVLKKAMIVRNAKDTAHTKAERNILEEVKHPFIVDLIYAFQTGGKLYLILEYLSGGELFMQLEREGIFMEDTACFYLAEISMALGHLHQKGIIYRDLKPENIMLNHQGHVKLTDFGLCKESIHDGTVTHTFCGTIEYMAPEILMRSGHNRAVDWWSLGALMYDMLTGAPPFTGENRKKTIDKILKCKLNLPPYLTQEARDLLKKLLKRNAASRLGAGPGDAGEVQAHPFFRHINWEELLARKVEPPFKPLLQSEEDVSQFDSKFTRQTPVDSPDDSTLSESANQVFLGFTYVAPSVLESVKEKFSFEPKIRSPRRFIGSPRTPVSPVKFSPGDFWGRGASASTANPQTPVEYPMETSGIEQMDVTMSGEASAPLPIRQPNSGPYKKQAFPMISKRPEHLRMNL

In the case of `Fc1ccc(CNc2ncnc3ccc(F)cc23)cc1` [5aa, 6-Fluoro-N-(4-fluorobenzyl)-4-Quinazolinamine], the remaining activity at 10 µM was 99% on TAO1(h) (setting [1]); 75% at STK39(h) (setting [1]); 89% on PKCα(h) (setting [1]); 101% on MKK3(h) (setting [1]); 91% on p70S6K(h) (setting [1]).
On to `Fc1ccc(CCNc2ncnc3ccc(F)cc23)cc1` [5as, 6-Fluoro-N-[2-(4-Fluorophenyl)Ethyl]-4-Quinazolinamine], for which the remaining activity at 10 µM came to 104% at TAO1(h) (setting [2]); 100% on STK39(h) (setting [2]); 94% on PKCα(h) (setting [2]); 82% on MKK3(h) (setting [2]); 81% at p70S6K(h) (setting [2]).
As for `Fc1ccc2ncnc(NCCc3ccc(Cl)cc3)c2c1` [5at, N-[2-(4-Chlorophenyl)Ethyl]-6-Fluoro-4-Quinazolinamine], the remaining activity at 10 µM came to 97% at TAO1(h) (setting [3]); 91% on STK39(h) (setting [3]); 79% at PKCα(h) (setting [3]); 86% at MKK3(h) (setting [3]); 83% at p70S6K(h) (setting [3]).
Take `COc1ccc2ncnc(Nc3cccc(F)c3)c2c1` [5ay, N-(3-Fluorophenyl)-6-Methoxy-4-Quinazolinamine]: the remaining activity at 10 µM came out at 95% at TAO1(h) (setting [4]); 114% on STK39(h) (setting [4]); 86% at PKCα(h) (setting [4]); 105% at MKK3(h) (setting [4]); 76% at p70S6K(h) (setting [4]).
